In US20190151329A1, “THERAPEUTIC USE OF DIAMINOPHENOTHIAZINES” (WisTa Laboratories Ltd., priority 2007, published 2019):
“And” between values parts separate entries of the source, which are not always exact repeats. Equal values may be shown once. Read-outs that look alike come from different tables or passages of the source.

How the values were obtained:
[1] = Pig single oral dose pharmacokinetic study (blood and brain); format: in vivo, pigs; conditions: single oral 20 mg/kg
Procedure: Finally, a comparison was made between the compartment predictions and the results from an oral study in which pigs were administered a single 20 mg/kg dose, and brain levels of MT were determined. […] Blood (0.5, 1, 2, 4, 8, 12, 24 and 48 h) and urine (1, 2, 3, 4, 5, 6, 7, 8, 12, and 24 h) were collected at regular timepoints up to 48 hrs. Two animals were sacrificed at each of 1, 8, 24 and 48 h post dose and brain samples retained. Pharmacokinetic evaluation of the free base of MTC was performed on whole blood and brain tissue samples. Two batches of brain tissue sample were extracted for each animal and analysed essentially as described by Peter et al (2000).
Brain tissue (500 mg) was vortexed and then extracted with dichloroethane (5 ml) and the organic phase taken to dryness under nitrogen. The extract was taken up with methanol and separated by reverse-phase HPLC with ultraviolet detection.

[2] = rats; IV; within 2 minutes; cited from earlier work
[3] = cited from earlier work; for L-MT urinary excretion rate / Ox-MT urinary excretion rate: 10 mg MTC oral
[4] = cited from earlier work; for Blood Ox-MT concentration: human whole blood, 100 mg MTC IV
[5] = human, time 0.5 hr (mid-time 0.25 hr)
[6] = human, time 1 hr (mid-time 0.75 hr)
[7] = human, time 2 hr (mid-time 1.5 hr)
[8] = human, time 3 hr (mid-time 2.5 hr)
[9] = human, time 4 hr (mid-time 3.5 hr)
[10] = human, time 6 hr (mid-time 5 hr)
[11] = human, time 9 hr (mid-time 7.5 hr)
[12] = human, time 24 hr (mid-time 16.5 hr)
[13] = human, time 33 hr (mid-time 28.5 hr)
[14] = human, time 48 hr (mid-time 40.5 hr)
[15] = human, time 57 hr (mid-time 52.5 hr)
[16] = human, time 72 hr (mid-time 64.5 hr)
[17] = human, time 81 hr (mid-time 76.5 hr)
[18] = human, time 96 hr (mid-time 88.5 hr)
[19] = human, time 105 hr (mid-time 100.5 hr)
[20] = human, time 120 hr (mid-time 112.5 hr)
[21] = human, 10 mg oral, non-compartmental secondary parameter
[22] = human, 10 mg oral, urinary excretion data

CN(C)c1ccc2nc3ccc(=[N+](C)C)cc-3sc2c1 [MTC, methylthioninium chloride]
half-life ([1]; brain, read-out: terminal elimination half-life, brain (converted)): 23.5 h
half-life ([1]; whole blood, read-out: terminal elimination half-life, blood (converted)): 23.5 h
dose recovered from the major organs [2]: approximately 25%
terminal elimination half-life deduced by DiSanto and Wagner ([3]; from urinary excretion data): 15 to 16.5 h
L-MT urinary excretion rate [3, 5]: 14.01 µg/h
Ox-MT urinary excretion rate [3, 5]: 2.31 µg/h
L-MT urinary excretion rate [3, 6]: 385.06 µg/h
Ox-MT urinary excretion rate [3, 6]: 20.59 µg/h
L-MT urinary excretion rate [3, 7]: 659.14 µg/h
Ox-MT urinary excretion rate [3, 7]: 38.66 µg/h
L-MT urinary excretion rate [3, 8]: 474.29 µg/h
Ox-MT urinary excretion rate [3, 8]: 50.56 µg/h
L-MT urinary excretion rate [3, 9]: 384.43 µg/h
Ox-MT urinary excretion rate [3, 9]: 40.66 µg/h
L-MT urinary excretion rate [3, 10]: 290.50 µg/h
Ox-MT urinary excretion rate [3, 10]: 53.01 µg/h
L-MT urinary excretion rate [3, 11]: 120.29 µg/h
Ox-MT urinary excretion rate [3, 11]: 42.86 µg/h
L-MT urinary excretion rate [3, 12]: 78.72 µg/h
Ox-MT urinary excretion rate [3, 12]: 37.99 µg/h
L-MT urinary excretion rate [3, 13]: 41.87 µg/h
Ox-MT urinary excretion rate [3, 13]: 24.34 µg/h
L-MT urinary excretion rate [3, 14]: 26.77 µg/h
Ox-MT urinary excretion rate [3, 14]: 11.02 µg/h
L-MT urinary excretion rate [3, 15]: 14.11 µg/h
Ox-MT urinary excretion rate [3, 15]: 5.00 µg/h
L-MT urinary excretion rate [3, 16]: 7.88 µg/h
Ox-MT urinary excretion rate [3, 16]: 4.98 µg/h
L-MT urinary excretion rate [3, 17]: 6.39 µg/h
Ox-MT urinary excretion rate [3, 17]: 2.53 µg/h
L-MT urinary excretion rate [3, 18]: 3.09 µg/h
Ox-MT urinary excretion rate [3, 18]: 1.74 µg/h
L-MT urinary excretion rate [3, 19]: 3.02 µg/h
Ox-MT urinary excretion rate [3, 19]: 1.23 µg/h
L-MT urinary excretion rate [3, 20]: 1.91 µg/h
Ox-MT urinary excretion rate [3, 20]: 0.88 µg/h
MRT, Free (Ox-MTC) ([3]; human, 10 mg oral): 24.5000 h
MRT, Leuco (L-MT) ([3]; human, 10 mg oral): 16.8774 h
T½ (distribution), Free (Ox-MTC) ([3]; human, 10 mg oral): 0.5930 h
T½ (distribution), Leuco (L-MT) ([3]; human, 10 mg oral): 1.1530 h
T½ (elimination), Free (Ox-MTC) ([3]; human, 10 mg oral): 15.0364 h
T½ (elimination), Leuco (L-MT) ([3]; human, 10 mg oral): 16.4953 h
Urinary excretion (% of total), Free (Ox-MT) ([3]; human, 10 mg oral): 23% and 22.94%
Urinary excretion (% of total), Leuco (L-MT) ([3]; human, 10 mg oral): 77% and 77.06%
total urinary recovery ([3]; human, 10 mg oral): 65 % of dose
AUC, Leuco (L-MT) [3, 21]: 4981.55 µg·h
CI, Free (Ox-MTC) [3, 21]: 6.7420 L/h
CI, Leuco (L-MT) [3, 21]: 2.0074 L/h
F (calculated bioavailability), Free (Ox-MTC) [3, 21]: 0.1483
F (calculated bioavailability), Leuco (L-MT) [3, 21]: 0.4982
Vc, Free (Ox-MTC) [3, 21]: 4.4188 L
Vc, Leuco (L-MT) [3, 21]: 4.1152 L
K12, Free (Ox-MTC) [3, 22]: 0.7506
K12, Leuco (L-MT) [3, 22]: 0.2962
K21, Free (Ox-MTC) [3, 22]: 0.2381
Kel (terminal elimination rate constant), Free (Ox-MTC) [3, 22]: 0.2263
Kel (terminal elimination rate constant), Leuco (L-MT) [3, 22]: 0.2430
Tlag, Free (Ox-MTC) [3, 22]: 0.2078 h
Tlag, Leuco (L-MT) [3, 22]: 0.2381 h
VcF (Vc × F), Leuco (L-MT) [3, 22]: 8.2607 L
terminal elimination half-life (Ox-MT and L-MT comparable) [3, 22]: ~16 h
corrected apparent central volume (Ox-MT and L-MT comparable) ([3]; in vivo, po): 4 L
terminal elimination half-life deduced by Peter et al. ([4]; from analysis of blood concentration data): 5.5 to 6.3 h
Blood Ox-MT concentration ([4]; 0.09 hr): 6.06 µmol/L
Blood Ox-MT concentration ([4]; 0.15 hr): 3.32 µmol/L
Blood Ox-MT concentration ([4]; 0.24 hr): 1.73 µmol/L
Blood Ox-MT concentration ([4]; 0.33 hr): 1.65 µmol/L
Blood Ox-MT concentration ([4]; 0.5 hr): 0.78 µmol/L
Blood Ox-MT concentration ([4]; 0.65 hr): 0.61 µmol/L
